The source of these data is patent EP0559625B1, “Esters of L-carnitine and acyl L-carnitine endowed with muscle relaxant activityselective on gastrointestinal tract and pharmaceutical compositions containing same” (Sigma-Tau Industrie Farmaceutiche Riunite S.p.A., priority 1992, dated 1993).

In general, IC50 refers to the concentration at which inhibition is half-maximal.

The target in data set [1] is sites associated to calcium channels labeled by ^3H-Nitrendipine. The data set is described as follows: Binding to Ca++ channel sites labelled by 3H-Nitrendipine in rat brain. To be noted: rat brain cortex membranes; ^3H-Nitrendipine 0.5 nM, 60' at 30°C; inactive at 10^-5 M not tested higher; read-out: IC50 Uptake sites of Ca^++ channels labelled with ^3H-Nitrendipine. The method, then: (§1) The "binding" of the tested compounds to the sites associated to calcium channels labeled by ^3H-Nitrendipine, ^3H-Verapamil and ^3H-Diltiazem has been assayed in rat brain according to the method of Schoemaker H. et al. Eur. J. Pharmacol. 111, 273 (1985) and of Reynolds I.J. et al. Eur. J. Pharmacol. 95, 319 (1983).
(§2) Brain cortices are removed from decollated male CrI: CD (SD) BR rats weighing 250-300 g.
(§3) The tissues were homogenized in Tris-HCl buffer and centrifuged at 50000 x g for 10 minutes. The pellet was washed twice through a fresh buffer suspension and centrifuged at 50000 x g for 10 minutes.
(§4) After suspension of the precipitate in the incubation buffer the compounds under examination were added to the medium, starting from a concentration 10^-5 M. Incubation conditions were: ^3H-Nitrendipine (0.5 nM) x 60' at 30°C; ^3H-Verapamil (10 µM) x 20' at 37°C; and ^3H-d-cis Diltiazem (4 nM) x 60' at 30°C. Final volume was 1 ml. Incubation was stopped by rapid filtration under vacuum through GF/B (0.1% […]) fiber filters which were washed with cold incubation buffer (3 x 3 ml) using the system of filtration Brandel Cell Harvester. Filters were put in 8 ml of Optifluor (Packard) and the radioactivity bound to the membranes trapped by fibers counted by liquid scintillation spectrometer TRI-CARB 1900 CA (Packard). The counting efficiency was about 50%.
(§5) The percentage inhibition of the specific ^3H-ligand binding to its respective receptors was calculated for each concentration (mean of three incubates).
(§6) The competition curve, the slope of the curve and IC50^± standard deviation values (drug concentration that reduces specific ^3H-ligand binding to its respective receptors by 50% of its maximum value) were calculated by using the "Allfit" program (De Lean A. et al., Am. J. Physiol. 235, E97, 1978) running on an IBM 55-SH.

Data set [2] has as its target sites associated to calcium channels labeled by ^3H-Diltiazem. Put plainly: Binding to Ca++ channel sites labelled by 3H-Diltiazem in rat brain. To be noted: rat brain cortex membranes; ^3H-d-cis Diltiazem 4 nM, 60' at 30°C; read-out: IC50 Uptake sites of Ca^++ channels labelled with ^3H-Diltiazem. How it is done:
as §1, §2, §3, §4, §5, §6

The test system of a further data set is mice. The data set is described as follows: Assessment of behaviour and mortality in mice (Irwin's method). The class given is in vivo. To be noted: for Death rate: dead/treated, 4 animals/dose; for Symptoms: n.e. = no effect, (*) = in connection with death rate only. How it is done:
The assessment of normal behaviour in mice was carried out following S. Irwin's method, Psychopharmacologia 13, 222 (1968). This method allows alterations in some behavioural, neurophysiologic and neurovegetative parameters to be detected, which are directly observable by the researcher. The study was conducted using male CrI: (CD-I)(ICR)BR mice (Charles River - Italy) weighing 22-25 g, following oral administration of the compounds suspended in carboxymethylcellulose (0.5% by weight in H2O) to groups of 4 animals/dose.
The animals were continuously kept under observation for five hours following treatment and twice a day in the subsequent five days. Mortality was also observed during the overall test period. The initial dose was 1000 mg/kg per os; lower doses were administered in case of death or if the initial dose brought about an excessive response.

The target of data set [3] is sites associated to calcium channels labeled by ^3H-Verapamil. Put plainly: Binding to Ca++ channel sites labelled by 3H-Verapamil in rat brain. The conditions noted are these: rat brain cortex membranes; ^3H-Verapamil (10 µM), 20' at 37°C; read-out: IC50 Uptake sites of Ca^++ channels labelled with ^3H-Verapamil. How it is done:
as §1, §2, §3, §4, §5, §6

Data set [4] concerns conscious spontaneously hypertensive rats (SHR). Put plainly: Effect on blood pressure and heart rate in conscious SHR. The conditions noted are these: oral 100 mg/kg, 1, 2 and 4 hours after administration. It is filed as in vivo. How it is done:
The effect of the substance has been tested after oral administration of 100 mg/kg to conscious spontaneously hypertensive rats (SHR). No changes of blood pressure and heart rate were observed 1, 2 and 4 hours after the administration. The experimental procedure was run according to Yeer T.T. et al, Life Sciences 22, 359 (1978).

Another data set deals with Rat portal vein. Put plainly: Rat portal vein: contractions evoked by high K+ concentrations. The conditions noted are these: at a concentration of 10 mg/ml. The text has this:
The effect of the compound on the contractions evoked by high K^+ concentrations in the rat portal vein has been tested according to Shetty S.S. et al., Europ. J. Pharm. 141, 485 (1989).

Molecules are shown by their SMILES. A value given as a limit tells only on which side of the number the result lay.

`CCCCOC(=O)C[C@H](C[N+](C)(C)C)OC(=O)CC(C)C` [ST 683]: the IC50 was more than 10000 nM in data set [1], 15000 nM in data set [2] and 2400 nM in data set [3]. Besides, the Death rate was 0/4 in the data set with mice (dose 300 (mg/kg per os)), 2/4 with mice (dose 600 (mg/kg per os)) and 4/4 in the data set with mice (dose 1000 (mg/kg per os)). Moreover, the Symptoms result with mice (dose 300 (mg/kg per os)) is recorded as “n.e”; in the data set with mice (dose 600 (mg/kg per os)), “convulsions (*)”; with mice (dose 1000 (mg/kg per os)), “convulsions (*)”.
On to `CCCCCCCOC(=O)C[C@H](C[N+](C)(C)C)OC(=O)C(C)C` [ST 713, isobutyryl L-carnitine heptyl ester chloride], for which the figures for the IC50 in data set [1], in data set [2] and in data set [3] were more than 10000 nM, 1300 nM and 1200 nM, respectively. Besides, the Death rate with mice (dose 100 (mg/kg per os)) was 0/4; in the data set on mice (dose 300 (mg/kg per os)), 2/4; in the data set on mice (dose 600 (mg/kg per os)), 3/4; in the data set on mice (dose 1000 (mg/kg per os)), 4/4. In addition, the Symptoms entry with mice (dose 100 (mg/kg per os)) is on record as “n.e”; in the data set with mice (dose 300 (mg/kg per os)), “convulsions (*)”; with mice (dose 600 (mg/kg per os)), “convulsions (*)”; in the data set on mice (dose 1000 (mg/kg per os)), “convulsions (*)”.
Turning to `CCCCCCCCCCCOC(=O)C[C@H](C[N+](C)(C)C)OC(=O)CC(C)C` [ST 722, isovaleryl L-carnitine undecyl ester chloride], the IC50 in data set [1] is 1600 nM. For the same compound, in data set [4], the “changes of blood pressure” value was “No changes” and the “changes of heart rate” value is “No changes”. For the same compound, the IC50 in data set [2] is 1400 nM. In the data set on mice (dose 1000 (mg/kg per os)), the Death rate was 0/4 and the Symptoms entry is given as “salivation, diarrhea”. For the same compound, the “effect on the contractions evoked by high K^+ concentrations in the rat portal vein” value in the data set with Rat portal vein is “inactive”. The IC50 in data set [3] was 380 nM.
For `CCCCCCCOC(=O)C[C@H](C[N+](C)(C)C)OC(C)=O` [ST 904, acetyl L-carnitine heptyl ester chloride], the IC50 in data set [1] was more than 10000 nM; in data set [2], more than 10000 nM; in data set [3], 3200 nM. For the same compound, the results for the Death rate in the data set with mice (dose 300 (mg/kg per os)), with mice (dose 600 (mg/kg per os)) and in the data set with mice (dose 1000 (mg/kg per os)) were 0/4, 2/4 and 4/4, respectively. For the same compound, the Symptoms entry with mice (dose 300 (mg/kg per os)) is listed as “n.e”; in the data set on mice (dose 600 (mg/kg per os)), “convulsions (*)”; with mice (dose 1000 (mg/kg per os)), “convulsions (*)”.
For the compound `CCCCCCCCCCCOC(=O)C[C@H](C[N+](C)(C)C)OC(=O)C(C)C` [ST 712, Isobutyryl L-carnitine undecyl ester chloride], the values for the IC50 in data set [1], in data set [2] and in data set [3] were 5300 nM, 1200 nM and 2800 nM, respectively. Moreover, the Death rate in the data set on mice (dose 1000 (mg/kg per os)) was 0/4. Also, the Symptoms entry in the data set with mice (dose 1000 (mg/kg per os)) is “n.e”.
Regarding `CC(C)COC(=O)C[C@H](C[N+](C)(C)C)OC(=O)CC(C)C` [ST 684], the IC50 was more than 10000 nM in data set [1], 7800 nM in data set [2] and 1600 nM in data set [3]. Further, the Death rate in the data set on mice (dose 1000 (mg/kg per os)) is listed as 0/4. Moreover, the Symptoms entry in the data set with mice (dose 1000 (mg/kg per os)) is “n.e”.
As to `CCCCCCCOC(=O)C[C@H](C[N+](C)(C)C)OC(=O)CC(C)C` [ST 697], the IC50 was more than 10000 nM in data set [1], 500 nM in data set [2] and 1500 nM in data set [3]. Further, the Death rate with mice (dose 100 (mg/kg per os)) was 0/4; in the data set with mice (dose 300 (mg/kg per os)), 1/4; with mice (dose 600 (mg/kg per os)), 2/4; in the data set with mice (dose 1000 (mg/kg per os)) it was 4/4. Moreover, the Symptoms entry in the data set on mice (dose 100 (mg/kg per os)) is “n.e”; with mice (dose 300 (mg/kg per os)), “convulsions (*)”; in the data set on mice (dose 600 (mg/kg per os)) it was “convulsions (*)”; in the data set with mice (dose 1000 (mg/kg per os)), “convulsions (*)”.
On to `CC(C)COC(=O)C[C@H](C[N+](C)(C)C)OC(=O)C(C)C` [ST 305], for which the IC50 is 33000 nM in data set [1], more than 10000 nM in data set [2] and 3500 nM in data set [3]. Further, the Death rate in the data set with mice (dose 1000 (mg/kg per os)) is 0/4. The Symptoms entry in the data set with mice (dose 1000 (mg/kg per os)) is “n.e”.
